Values joined by “and” are separate entries in the source; they are usually repeats but may differ in a detail not shown here. Equal values may be shown once.
Legend:
AhR [1] = assay: AhR-regulated (XRE) luciferase reporter gene assay in Hepa-1 cells; format: cell-based, mouse; details: 10 nM, 12 h, Hepa1 cells, XRE-luciferase reporter
Procedure: Figure 1 10-Cl-BBQ is a potent AhR ligand. A) Structure of 10-Cl-BBQ. […] C) Hepa-1 cells expressing endogenous AhR were transfected with an AhR-regulated luciferase reporter gene (xenobiotic responsive element (XRE)-MMTVpromoter-Luc) and the reporter gene activity was measured after 12 h of treatment with 1 nM TCDD or the indicated concentrations of 10-Cl-BBQ. D) Alteration in proteolytic pattern of AhR by 10-Cl-BBQ. Whole cell lysate (45 µg of protein) from mouse hepatoma Hepa1c1c7 cells was incubated with 100 nM 10-Cl-BBQ or 0.1% DMSO for 1 h at RT and proteolyzed by 1 µg/ml subtilisin for 1, 2, 4, and 8 min at RT. Proteolytic cleavage products of AhR were analyzed by immunoblot. E) Electrophoretic mobility shift assay showing the ligand-stimulated binding of AhR to XRE. Whole cell lysate (18 µg of protein) from mouse hepatoma Hepa1c1c7 cells was incubated with 10 nM 10-Cl-BBQ or 0.1% DMSO for 2 h at room temperature and ^32P-labeled oligonucleotide containing XRE for 20 min at room temperature. The samples were electrophoresed on a native polyacrylamide gel and the signal was visualized by Phosphor Imager. Unlabeled competitor XRE or antibody (Ab) against AhR or Arnt was co-incubated with ^32P-labeled oligonucleotide.
The mean luciferase activity is shown with SEM. […] 3-MC binding to AhR.

AhR [2] = tested on: AhR
Procedure: The AhR reporter gene assay was performed as previously described (20–22).
B) Hepa1 cells expressing endogenous AhR were transfected with a XRE-luciferase reporter gene. […] The mean luciferase activity is shown with SEM. C) Dose response curves for the competitive inhibition of [^3H] 3-MC binding to AhR.
3-methylcholanthrene (3-MC) to AhR (Fig. 5C).

AhR [3] = tested on: AhR; set-up: method as in PMID 18755850; details: MCF-7 cells and human macrophages; cited from earlier work
CaMKK = tested on: CaMKK; set-up: method as in PMID 11867640; details: cited from earlier work
donor CD4+ T cells = assay: AhR-Treg phenotype of alloactivated donor CD4+ T cells 48 h after initiating the GVH response; format: in vivo, B6D2F1 host mice; details: 10 mg/kg i.p. day 0 and day 1, analysed day 2, vs vehicle
Procedure: Splenocytes and lymphocytes were harvested from C57Bl/6 mice. In some experiments, T cells were purified by negative selection using a Pan-T kit (Miltenyi Biotec) and stained with 2 µM carboxyfluorescein succinimidyl ester (CFSE) (Life Technologies). At least 2×10^7 purified T cells or approximately 1×10^8 pooled splenocytes and lymphocytes were injected i.v. into B6D2F1 host mice to initiate the GVH response. GVHD pathology was assessed on a scale of 0 to 3 (0 = normal, 1 = moderate morbidity, 2 = severe morbidity, 3 = death) according to the following five criteria: weight-loss, posture, activity, fur texture and death and reported as a Clinical GVHD Score.
Host mice were treated daily with vehicle, 10-Cl-BBQ or BBQ analogues by i.p. injection. The vehicle consisted of a mixture of 6.7% anisole and peanut oil. Mice treated with a single i.p. dose of 15 µg TCDD/kg body weight in the same vehicle were used as positive controls.
Antibodies to CTLA-4, Foxp3, ICOS, CD62L, CD25, CD19, CD44) and a fixable viability dye were purchased from eBiosciences. Additional antibody reagents included CD4 and CD8 (Life Technologies); H-2D^d (Biolegend) and CD45RB (PharMingen). After surface staining, the cells were fixed and permeabilized with Cytofix/cytoperm (BD Biosciences) for intracellular CTLA-4 stain. The flow cytometry data were acquired on an FC500 instrument (Beckman Coulter) and the data were analyzed using WinList 7.0 (Verity Software House). Fluorescence minus one (FMO) controls were used for setting histogram gates during the analysis.
Figure 3 10-Cl-BBQ induces an AhR-dependent Treg phenotype 48 h after initiating the GVH response. On day 0, B6D2F1 host mice in groups of 5 were injected with CFSE-labeled C57Bl/6 T cells and given 15 mg/kg 10-Cl-BBQ, 15 µg/kg TCDD or vehicle by i.p. injection. At 24 h, an additional dose of 7 mg/kg 10-Cl-BBQ or vehicle was given. […] Treatment mean ± SEM is shown in the quadrant of interest. […] C) AhR-dependent induction of the donor Treg phenotype by 10-Cl-BBQ. On day 0, B6D2F1 host mice in groups of 5 were injected with donor T cells obtained from AhR^+/+ or AhR^−/− C57Bl/6 mice. Host mice were treated with 2 mg/kg10-Cl-BBQ or vehicle immediately following donor cell transfer and again at 24 hr. […] D) Dose-dependent induction of Treg phenotype by 10-Cl-BBQ. On day 0, B6D2F1 host mice in groups of 3–5 were injected with C57Bl/6 T cells. Mice were immediately treated with 0, 0.4, 2 or 10 mg/kg 10-Cl-BBQ and again on day 1. On day 2, expression of markers associated with the AhR-Treg phenotype increased as the dose of 10-Cl-BBQ increased. E) In the same mice as in D, lymph nodes were harvested and analyzed for expression of genes that were previously shown to increase under the same GVH conditions with TCDD treatment (13). […] Changes in gene expression were calculated relative to the β-actin gene, and the fold-induction was calculated by the ΔΔCt method using the vehicle-treated samples as a control. * = p<0.05 relative to vehicle treatment. […]

Molecule	activation of AhR (AhR-regulated reporter gene activity) (AhR [1])	IC50 (AhR [2])	concentration at which AhR activation occurred (AhR [3]) [µM]	concentration known to fully inhibit CaMKK (CaMKK) [µM]	percentage of alloresponsive donor CD4+ T cells expressing CD25 with AhR-Treg markers ICOS, CD62Llow and CTLA-4 (donor CD4+ T cells)
NN1C(=O)c2ccc3c(=O)n4c5ccc(Cl)cc5nc4c4ccc(c2c34)C1=O [analogue 2, 2-Amino-10-chlorobenzimidazo[2,1-b]benzo[lmn][3,8]phenanthroline-1,3,6(2H)-trione]	did not induce reporter activity	–	–	–	–
O=C(O)c1ccc2c3c1cccc3c(=O)n1c3ccccc3nc21 [analogue 5, 7-Oxo-7H-benzimidazo[2,1-a]benzo[de]isoquinoline-3-carboxylic acid, reference compound]	did not induce reporter activity	45200 nM and 45000 nM	25	25	–
11-Chloro-8H-benzimidazo[2,1-a]phenanthro[3,4,5-defg]isoquinolin-8-one [analogue 3]	2 fold	–	–	–	–
O=c1c2cccc3cccc(c32)c2nc3ccccc3n12 [analogue 1, 7H-Benzimidazo[2,1-a]benzo[de]isoquinolin-7-one]	13 fold	13.7 nM	–	–	significantly increased
Clc1cc2c(cc1Cl)Oc1cc(Cl)c(Cl)cc1O2 [TCDD, 2,3,7,8-tetrachlorodibenzo-p-dioxin, reference compound]	–	4.7 nM	–	–	–
O=c1c2ccc(Cl)c3cccc(c32)c2nc3cc(Cl)ccc3n12 [analogue 4, 4,11-Dichloro-7H-benzimidazo[2,1-a]benzo[de]isoquinolin-7-one]	19 fold	5.2 nM	–	–	significantly increased
